A compilation of properties of binary mixtures (doi:10.1021/acs.jced.8b00334)

Assay: xn = mol fraction of the nth substance listed
Settings: 101.3 kPa

CCCCC[P+](CC)(CC)CC.O=S(=O)([N-]S(=O)(=O)C(F)(F)F)C(F)(F)F + CCCCC[N+](CC)(CC)CC.O=S(=O)([N-]S(=O)(=O)C(F)(F)F)C(F)(F)F
x2 = 0
Settings	viscosity [mPa·s]
288.15 K	150
293.15 K	113
298.15 K	87
303.15 K	69
308.15 K	55
313.15 K	44.5
318.15 K	36.6
328.15 K	25.6
333.15 K	21.8
338.15 K	18.7
343.15 K	16.2
348.15 K	14.2
353.15 K	12.5

CCCCC[N+](CC)(CC)CC.O=S(=O)([N-]S(=O)(=O)C(F)(F)F)C(F)(F)F + CCCCC[P+](CC)(CC)CC.O=S(=O)([N-]S(=O)(=O)C(F)(F)F)C(F)(F)F
viscosity [mPa·s]
Settings	x1 = 0.2	x1 = 0.4	x1 = 0.6	x1 = 0.8	x1 = 1
283.15 K	229	266	316	386	479
288.15 K	168	192	225	270	329
293.15 K	126	143	165	194	233
298.15 K	97	108	–	144	169
303.15 K	75	84	94	109	–
308.15 K	60	66	74	84	96
313.15 K	48.3	53	58	66	75
318.15 K	–	42.9	47.2	53	60
323.15 K	32.7	35.4	38.6	42.9	48
328.15 K	27.4	29.5	32.1	35.4	39.3
333.15 K	23.2	24.9	26.9	29.5	32.6
338.15 K	19.9	21.2	–	24.9	27.4
343.15 K	17.2	18.3	19.6	21.3	–
348.15 K	15	15.9	16.9	–	19.9
353.15 K	–	13.9	14.8	15.9	–

CCC[N+](C)(C)C.O=S(=O)([N-]S(=O)(=O)C(F)(F)F)C(F)(F)F + CCC[N+]1(C)CCCC1.O=S(=O)([N-]S(=O)(=O)C(F)(F)F)C(F)(F)F
viscosity [mPa·s]
Settings	x1 = 0.2	x1 = 0.4	x1 = 0.6	x1 = 0.8	x1 = 1
283.15 K	129	–	–	160	–
288.15 K	101	104	–	121	–
293.15 K	78	–	88	94	102
298.15 K	63	65	70	74	79
303.15 K	51	52	56	–	63
308.15 K	–	43.1	–	48.3	51
313.15 K	35.2	35.9	–	39.9	42
318.15 K	29.8	30.3	32.1	–	35
323.15 K	25.5	25.8	27.3	–	–
328.15 K	–	–	23.4	–	25.2
333.15 K	–	–	–	20.9	–
338.15 K	16.8	16.9	17.7	18.2	18.8
343.15 K	14.8	–	15.6	16	16.5
348.15 K	13.2	–	13.8	14.2	14.6
353.15 K	–	11.9	–	12.6	12.9
